In US20260028352A1, “MACROCYCLIC IMIDAZO [1,2-B] PYRIDAZINE DERIVATIVE, PREPARATION METHOD THEREFOR, AND USE THEREOF” (SUZHOU LANGRUI BIOPHARMACEUTICAL CO., LTD., priority 2022, published 2026):
Like-named read-outs stand apart in the source and are kept apart here.

Columns and labels:
[1] = ether bond
TRKA^WT kinase = TRKA^WT kinase (Homo sapiens (Human), UniProt P04629); assay: Inhibitory activity against TRKA WT kinase (Caliper mobility shift); assay type: biochemical; conditions: in vitro kinase assay
TRKA^WT kinase, sequence (P04629 33-796): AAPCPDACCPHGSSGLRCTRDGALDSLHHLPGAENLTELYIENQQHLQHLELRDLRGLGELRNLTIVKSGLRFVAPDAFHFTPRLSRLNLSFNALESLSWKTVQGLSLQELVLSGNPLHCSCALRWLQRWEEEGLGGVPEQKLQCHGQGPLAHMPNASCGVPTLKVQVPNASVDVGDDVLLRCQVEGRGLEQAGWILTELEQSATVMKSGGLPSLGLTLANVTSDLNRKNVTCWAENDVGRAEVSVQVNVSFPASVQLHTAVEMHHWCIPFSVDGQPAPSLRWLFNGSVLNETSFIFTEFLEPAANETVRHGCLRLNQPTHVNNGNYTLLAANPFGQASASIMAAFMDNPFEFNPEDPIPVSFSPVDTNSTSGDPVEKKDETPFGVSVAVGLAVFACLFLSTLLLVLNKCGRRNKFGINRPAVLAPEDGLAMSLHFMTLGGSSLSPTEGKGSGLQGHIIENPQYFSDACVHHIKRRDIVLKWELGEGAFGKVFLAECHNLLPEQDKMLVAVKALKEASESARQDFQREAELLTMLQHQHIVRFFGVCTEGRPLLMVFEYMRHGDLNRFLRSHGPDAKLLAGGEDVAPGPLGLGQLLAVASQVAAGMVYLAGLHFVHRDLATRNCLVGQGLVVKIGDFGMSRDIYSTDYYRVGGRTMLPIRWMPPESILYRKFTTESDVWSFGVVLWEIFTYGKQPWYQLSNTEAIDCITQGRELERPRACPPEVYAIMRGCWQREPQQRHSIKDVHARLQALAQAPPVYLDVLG
How it was run: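 Kinase preincubated 10 min at room temperature with compound (10-point 3-fold series from 1000 nM), then reaction started with ATP and Kinase Substrate 22. Substrate conversion read by Caliper mobility shift; IC50 from variable-slope log(inhibitor)–response fit of % inhibition versus no-enzyme and no-compound controls.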

TRKA^F589L kinase = TRKA^F589L kinase (Homo sapiens (Human), UniProt P04629, F589L); assay: Inhibitory activity against TRKA(F589L) kinase (Caliper mobility shift); assay type: biochemical; conditions: in vitro kinase assay
TRKA^F589L kinase, sequence (P04629 33-796 F589L): as the sequence (P04629 33-796) above, with F557L counted along it
Method: Kinase Assay Process: 1× Kinase buffer was prepared. […] The compounds were serially diluted into 10 concentrations ([…], 0.15, and 0.05 nM) using a Precision 3-fold dilution method. By using the Echo550 liquid handler, 250 nL of the 100-fold final concentration compound was transferred to an OptiPlate-384F plate. a 2.5× final concentration kinase solution was prepared using 1× Kinase buffer. 10 μL of the 2.5× final concentration kinase solution was added to the compound wells and the positive control wells, and 10 μL of 1× Kinase buffer was added to the negative control wells. The plate was centrifuged at 1000 rpm for 30 seconds, vortexed for mixing, and then incubated at room temperature for 10 minutes. A mixture of 5/3× final concentration of ATP and Kinase Substrate 22 was prepared using 1× Kinase buffer. 15 μL of the mixture of the 5/3× final concentration ATP and the substrate was added to initiate the reaction, the 384-well plate was centrifuged at 1000 rpm for 30 seconds, vortexed for mixing, and incubated at room temperature for the required time. 30 μL of the termination solution was added to stop the kinase reaction, the plate was centrifuged at 1000 rpm for 30 seconds, and vortexed for mixing. The conversion rate was measured using the Caliper EZ Reader.
Data Analysis: the inhibition rate was calculated as follows:
% Inhibition=(Conversion %_max−conversion %_sample)÷(Conversion %_max−conversion %_min)×100
Conversion %_sample is the conversion rate reading for the sample; Conversion %_min is the average value of the negative control wells, representing the conversion rate for wells without enzyme activity: Conversion %_max is the average value of the positive control wells, representing the conversion rate for wells without compound inhibition. A dose-response curve was fitted using the log concentration of the compound as the X-axis and the percentage inhibition as the Y-axis. The log(inhibitor) vs. response-variable slope of the GraphPad Prism 5 software was used to fit the dose-response curve, and the IC50 value for each compound was obtained. The calculation formula is:
Y=Bottom+(Top−Bottom)/(1+10^((Log IC50−X)*HillSlope)).
wherein X represents the concentration of the compound to be tested; Y represents the inhibition rate at the concentration X: Top refers to the maximum response: Bottom refers to the baseline response; HillSlope refers to the slope of the curve (i.e., the gradient).

[2] = tested on: Ba/F3-TPM3-NTRK1-G667C cells; assay: Growth inhibition of Ba/F3-TPM3-NTRK1-G667C cells (Cell Titer-Glo); assay type: cell-based; conditions: for IC50: 72 hours, CTG, read-out: inhibitory activity IC50 Ba/F3-TPM3-NTRK1-G667C
How it was run: (§1)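 Ba/F3 cells were exposed for 72 hours to serially DMSO-diluted compound at a top final concentration of 10 μM. Viability was read by Cell Titer-Glo luminescence after the plate equilibrated 30 min at room temperature and was then shaken 1 hour in the dark at room temperature.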

[3] = tested on: Ba/F3-TPM3-NTRK1-G595R cells; assay: Growth inhibition of Ba/F3-TPM3-NTRK1-G595R cells (Cell Titer-Glo); assay type: cell-based; conditions: 72 hours, CTG; read-out: inhibitory activity IC50 Ba/F3-TPM3-NTRK1-G595R
How it was run: as §1

[4] = tested on: Ba/F3-TPM3-NTRK1-WT cells; assay: Growth inhibition of Ba/F3-TPM3-NTRK1-WT cells (Cell Titer-Glo); assay type: cell-based; conditions: 72 hours, CTG; read-out: inhibitory activity IC50 Ba/F3-TPM3-NTRK1-WT
How it was run: as §1

Row | Compound | IC50 (TRKA^WT kinase) [µM] | IC50 (TRKA^F589L kinase) [µM] | IC50 [2] [µM] | IC50 [3] [µM] | IC50 [4] [µM] | ring closure, isolated yield ([1]; from CC(Nc1ccc2ncc(-c3cc(CO)ccn3)n2n1)c1cc(F)ccc1O, 13-membered ring, SOCl2, K2CO3, DCM/DMF, 15.2 mM, 90.0 °C, 2.0 h, 2 steps) [%] | ring closure, isolated yield ([1]; from CC(Nc1ccc2ncc(-c3cc(CO)ccn3)n2n1)c1cc(F)cc(F)c1O, 13-membered ring, SOCl2, K2CO3, DCM/DMF, 15.2 mM, 90.0 °C, 1.5 h, 2 steps) [%] | inhibitory ability compared with TPX-0005 ([2]; comparison in words) | ring closure, isolated yield ([1]; from CC(Nc1ccc2ncc(-c3cc(CO)ccn3)n2n1)c1ccccc1O, 13-membered ring, SOCl2, K2CO3, DCM/DMF, 11.0 mM, 90.0 °C, 2.0 h, 2 steps) [%] | ring closure, isolated yield ([1]; from CC(Nc1ccc2ncc(-c3cc(CO)ccn3)n2n1)c1cccnc1O, 13-membered ring, SOCl2, K2CO3, DCM/DMF, 22.0 mM, 90.0 °C, 2.0 h, 2 steps) [%] | ring closure, isolated yield ([1]; from OCc1ccnc(-c2cnc3ccc(NCc4cc(F)ccc4O)nn23)c1, 13-membered ring, SOCl2, K2CO3, DCM/DMF, 20.3 mM, 90.0 °C, 2.0 h, 2 steps) [%] | ring closure, isolated yield ([1]; from OCc1ccnc(-c2cnc3ccc(NCc4ccccc4O)nn23)c1, 13-membered ring, SOCl2, K2CO3, DCM/DMF, 22.8 mM, 90.0 °C, 2.0 h, 2 steps) [%] | ring closure, isolated yield ([1]; from CC(Nc1ccc2ncc(-c3cncc(CO)c3)n2n1)c1cc(F)ccc1O, 13-membered ring, SOCl2, K2CO3, DCM/DMF, 15.7 mM, 90.0 °C, 2.0 h, 2 steps) [%] | ring closure, isolated yield ([1]; from OCCc1ccnc(-c2cnc3ccc(NCc4ccccc4O)nn23)c1, 14-membered ring, PPh3/DIAD, THF, 16.6 mM, 60.0 °C, 2.0 h) [%]
1 | CC1Nc2ccc3ncc(n3n2)-c2cc(ccn2)COc2ccccc21 (centres unmarked) [Example I-3, (E)-6-methyl-4-oxa-7-aza-1(3,6)-imidazo[1,2-b]pyridazine-2(2,4)-pyridine-5(1,2)-benzenacycloheptaphane] | 0.0059 | 0.0071 | 0.526 | 0.527 | 0.017 |  |  |  | 39.2 |  |  |  |  | 
2 | CC1Nc2ccc3ncc(n3n2)-c2cc(ccn2)COc2ncccc21 (centres unmarked) [Example I-4, (E)-6-methyl-4-oxa-7-aza-1(3,6)-imidazo[1,2-b]pyridazina-2(2,4), 5(2,3)-dipyridinacycloheptaphane] | < 0.003 | 0.0058 | < 0.1 |  |  |  |  |  |  | 30.2 |  |  |  | 
3 | c1ccc2c(c1)CNc1ccc3ncc(n3n1)-c1cc(ccn1)CO2 [Example I-6, (E)-4-oxa-7-aza-1(3,6)-imidazo[1,2-b]pyridazina-2(2,4)-pyridina-5(1,2)-benzenacycloheptaphane] | 0.00276 | 0.0061 | 0.526 | 0.527 | 0.018 |  |  |  |  |  |  | 13.6 |  | 
4 | CC1Nc2ccc3ncc(n3n2)-c2cncc(c2)COc2ccc(F)cc21 (centres unmarked) [Example I-7, (E)-5^4-fluoro-6-methyl-4-oxa-7-aza-1(3,6)-imidazo[1,2-b]pyridazine-2(3,5)-pyridina-5(1,2)-benzenacycloheptaphane] | < 0.003 | < 0.005 | 0.22 | 0.198 | 0.0028 |  |  |  |  |  |  |  | 22.6 | 

More lines, in order of falling IC50 (TRKA^WT kinase), values ahead:

Row | IC50 (TRKA^WT kinase) [µM] | IC50 (TRKA^F589L kinase) [µM] | IC50 [2] [µM] | IC50 [3] [µM] | IC50 [4] [µM] | Compound | ring closure, isolated yield ([1]; from CC(Nc1ccc2ncc(-c3cc(CO)ccn3)n2n1)c1cc(F)ccc1O, 13-membered ring, SOCl2, K2CO3, DCM/DMF, 15.2 mM, 90.0 °C, 2.0 h, 2 steps) [%] | ring closure, isolated yield ([1]; from CC(Nc1ccc2ncc(-c3cc(CO)ccn3)n2n1)c1cc(F)cc(F)c1O, 13-membered ring, SOCl2, K2CO3, DCM/DMF, 15.2 mM, 90.0 °C, 1.5 h, 2 steps) [%] | inhibitory ability compared with TPX-0005 ([2]; comparison in words) | ring closure, isolated yield ([1]; from CC(Nc1ccc2ncc(-c3cc(CO)ccn3)n2n1)c1ccccc1O, 13-membered ring, SOCl2, K2CO3, DCM/DMF, 11.0 mM, 90.0 °C, 2.0 h, 2 steps) [%] | ring closure, isolated yield ([1]; from CC(Nc1ccc2ncc(-c3cc(CO)ccn3)n2n1)c1cccnc1O, 13-membered ring, SOCl2, K2CO3, DCM/DMF, 22.0 mM, 90.0 °C, 2.0 h, 2 steps) [%] | ring closure, isolated yield ([1]; from OCc1ccnc(-c2cnc3ccc(NCc4cc(F)ccc4O)nn23)c1, 13-membered ring, SOCl2, K2CO3, DCM/DMF, 20.3 mM, 90.0 °C, 2.0 h, 2 steps) [%] | ring closure, isolated yield ([1]; from OCc1ccnc(-c2cnc3ccc(NCc4ccccc4O)nn23)c1, 13-membered ring, SOCl2, K2CO3, DCM/DMF, 22.8 mM, 90.0 °C, 2.0 h, 2 steps) [%] | ring closure, isolated yield ([1]; from CC(Nc1ccc2ncc(-c3cncc(CO)c3)n2n1)c1cc(F)ccc1O, 13-membered ring, SOCl2, K2CO3, DCM/DMF, 15.7 mM, 90.0 °C, 2.0 h, 2 steps) [%] | ring closure, isolated yield ([1]; from OCCc1ccnc(-c2cnc3ccc(NCc4ccccc4O)nn23)c1, 14-membered ring, PPh3/DIAD, THF, 16.6 mM, 60.0 °C, 2.0 h) [%]
5 | 0.00259 | 0.0062 | 0.0325 | 0.245 | 0.0248 | CC1Nc2ccc3ncc(n3n2)-c2cc(ccn2)COc2c(F)cc(F)cc21 (centres unmarked) [Example I-2, (E)-5^4,5^6-difluoro-6-methyl-4-oxa-7-aza-1(3,6)-imidazo[1,2-b]pyridazine-2(2,4)-pyridina-5(1,2)-benzenacycloheptaphane] |  | 11.2 | stronger than that of compound TPX-0005 |  |  |  |  |  | 
6 | 0.00257 | 0.0054 | 0.0912 | 0.0722 | 0.00366 | CC1Nc2ccc3ncc(n3n2)-c2cc(ccn2)COc2ccc(F)cc21 (centres unmarked) [Example I-1, (E)-5^4-fluoro-6-methyl-4-oxa-7-aza-1(3,6)-imidazo[1,2-b]pyridazina-2(2,4)-pyridina-5(1,2)-benzenacycloheptaphane] | 11.3 |  |  |  |  |  |  |  | 
7 | 0.00246 | < 0.005 | 0.562 | 0.562 | 0.0034 | c1ccc2c(c1)CNc1ccc3ncc(n3n1)-c1cc(ccn1)CCO2 [Example I-8, (E)-6-oxa-3-aza-2(3,6)-imidazo[1,2-b]pyridazina-1(2,4)-pyridina-5(1,2)-benzenacyclooctaphane] |  |  |  |  |  |  |  |  | 34
8 | 0.00136 | < 0.005 | 0.094 | 0.0915 | 0.00794 | Fc1ccc2c(c1)CNc1ccc3ncc(n3n1)-c1cc(ccn1)CO2 [Example I-5, (E)-5^4-fluoro-4-oxa-7-aza-1(3,6)-imidazo[1,2-b]pyridazina-2(2,4)-pyridina-5(1,2)-benzenacycloheptaphane] |  |  |  |  |  | 11.6 |  |  | 
